Assay results from patent US5980913A, “Peptides having immunomodulatory activity” (Biochem Pharma, Inc., priority 1994, dated 1999).
Where a SMILES comes first, the peptide text is derived from it. [ ]: non-standard residue; d: D form.

Key:
B cells = assay: Activation of B cells by mitogenic proliferation (LPS, PWM); format: cell-based, C57BL/6 mice; conditions: concentration not given; 0 not defined
Excerpt: c) Activation of T or B cells by Mitogenic Proliferation
A mitogenic lectin (mitogen) is a glycoprotein which binds and cross-links specific cells surface carbohydrate determinants, and will polyclonally stimulate lymphoid cells. Lymphocyte activation by either antigens or mitogens results in intracellular changes and the subsequent development into a lymphoblast. Mitogenic stimulation of lymphocytes in vitro is believed to mimic the series of events which occur in vivo following their stimulation by specific antigens. PHA and ConA; PWM and LPS mitogens can be used as a measurement of T cell and B cell activity, respectively. Briefly, the spleen mononuclear leukocytes from C57BL/6 mice are incubated in the presence or absence of mitogens with or without candidate drugs. After 72 hours or 5 days, ^3 H-thymidine incorporation is recorded as an indication of cell proliferation.
Lymphocytes were isolated from mice spleen or human blood in accordance to methods well known in the art. 100 μl of cell suspension of 2×10^6 cells/ml was added per well (2x10^5 cells/well) and incubated in the presence of lectin at the following concentrations:
PWM=0.2 to 0.02% final concentration
Cells were incubated for 3 days with PHA or ConA, or 5 days with PWM or LPS. 1 μCi of tritiated thymidine was added to each well for the last 6 hours (or 0.5 μCi for 18 hrs). The cells were harvested in a cell Harvester (Tortech®) and counted in a Beta counter.

[1] = test system: spleen cell subsets (cell surface antigens); assay: In vivo/ex vivo immunophenotyping in the spleen, mice treated 4 consecutive days; design: species or system C57BL/6 mice
Method: C57BL.backslash.6 mice are treated with 0, 50, 100, 200, and 300 mg/kg of drug (in saline) for 4 consecutive days. Blood is taken by cardiac puncture on day 5, and the lymphocytes are isolated from spleen in the following manner:
The spleen is aseptically removed and mashed by pressing against a steel strainer with a rubber plunger. The cell suspension is separated from the clumps by letting them settle at the bottom of the tube. The cell suspension is then separated on a Lymphocyte M layer and the interface is recovered and resuspended in media.
1. Immunophenotyping (blood and spleen)
Cell immunophenotyping is performed on blood and spleen. The following cell surface antigens are analyzed:
CD4 (T helper/inducer, binds class II-restricted T cells);
CD8 (cytotoxic T cells, CTL adhesion);
MAC-1 (monocyte/macrophage);
NK (natural killer cells);
CD45 (all leukocytes, protein tyrosine phosphatase).

## NCCCC[C@@H](N)C(=O)N[C@@H](CC(N)=O)C(=O)N1CCC[C@H]1C(=O)N[C@@H](Cc1ccc(O)cc1)C(=O)O [PEPTIDE #5, H-(D-Lys)-Asn-Pro-Tyr-OH] (H-[dK]NPY-OH)
B cells
  Activation of B Cells, LPS: 0
  Activation of B Cells, PWM: 0
[1]; 50 mg/kg, first assay
  CD4+ CD8+ cell subset, relative percentage, MEAN: 0.58
  CD4+ CD8- cell subset, relative percentage, MEAN: 33.05
  CD4+ CD11b+ cell subset, relative percentage, MEAN: 0.83
  CD4+ CD11b- cell subset, relative percentage, MEAN: 23.88
  CD4- CD8+ cell subset, relative percentage, MEAN: 5.73
  CD4- CD8- cell subset, relative percentage, MEAN: 60.65
  CD4- CD11b+ cell subset, relative percentage, MEAN: 3.63
  CD4- CD11b- cell subset, relative percentage, MEAN: 71.73
  CD45+ CD4+ cell subset, relative percentage, MEAN: 21.43
  CD45+ CD4- cell subset, relative percentage, MEAN: 55.25
  CD45+ CD8+ cell subset, relative percentage, MEAN: 5.38
  CD45+ CD8- cell subset, relative percentage, MEAN: 66.00
  CD45- CD4+ cell subset, relative percentage, MEAN: 13.28
  CD45- CD4- cell subset, relative percentage, MEAN: 10.03
  CD45- CD8+ cell subset, relative percentage, MEAN: 0.63
  CD45- CD8- cell subset, relative percentage, MEAN: 28.05
  Ly5(B) cell subset, relative percentage, MEAN: 57.85
  NK+ CD3+ cell subset, relative percentage, MEAN: 1.50
  NK+ CD3- cell subset, relative percentage, MEAN: 3.78
  NK- CD3+ cell subset, relative percentage, MEAN: 38.13
  NK- CD3- cell subset, relative percentage, MEAN: 56.68
  TCR(T) cell subset, relative percentage, MEAN: 40.23
[1]; 50 mg/kg, second assay
  CD4+ CD8+ cell subset, relative percentage, MEAN: 0.63
  CD4+ CD8- cell subset, relative percentage, MEAN: 36.53
  CD4+ CD11b+ cell subset, relative percentage, MEAN: 0.38
  CD4+ CD11b- cell subset, relative percentage, MEAN: 14.85
  CD4- CD8+ cell subset, relative percentage, MEAN: 5.85
  CD4- CD8- cell subset, relative percentage, MEAN: 57.03
  CD4- CD11b+ cell subset, relative percentage, MEAN: 3.60
  CD4- CD11b- cell subset, relative percentage, MEAN: 81.15
  CD45+ CD4+ cell subset, relative percentage, MEAN: 29.23
  CD45+ CD4- cell subset, relative percentage, MEAN: 49.85
  CD45+ CD8+ cell subset, relative percentage, MEAN: 6.03
  CD45+ CD8- cell subset, relative percentage, MEAN: 75.15
  CD45- CD4+ cell subset, relative percentage, MEAN: 8.83
  CD45- CD4- cell subset, relative percentage, MEAN: 12.05
  CD45- CD8+ cell subset, relative percentage, MEAN: 0.18
  CD45- CD8- cell subset, relative percentage, MEAN: 18.65
  Ly5(B) cell subset, relative percentage, MEAN: 41.20
  NK+ CD3+ cell subset, relative percentage, MEAN: 2.18
  NK+ CD3- cell subset, relative percentage, MEAN: 3.83
  NK- CD3+ cell subset, relative percentage, MEAN: 39.60
  NK- CD3- cell subset, relative percentage, MEAN: 54.38
  TCR(T) cell subset, relative percentage, MEAN: 51.58
[1]; 100 mg/kg, first assay
  CD4+ CD8+ cell subset, relative percentage, MEAN: 0.70
  CD4+ CD8- cell subset, relative percentage, MEAN: 36.85
  CD4+ CD11b+ cell subset, relative percentage, MEAN: 0.95
  CD4+ CD11b- cell subset, relative percentage, MEAN: 23.73
  CD4- CD8+ cell subset, relative percentage, MEAN: 7.03
  CD4- CD8- cell subset, relative percentage, MEAN: 55.50
  CD4- CD11b+ cell subset, relative percentage, MEAN: 4.10
  CD4- CD11b- cell subset, relative percentage, MEAN: 71.23
  CD45+ CD4+ cell subset, relative percentage, MEAN: 23.25
  CD45+ CD4- cell subset, relative percentage, MEAN: 52.10
  CD45+ CD8+ cell subset, relative percentage, MEAN: 6.43
  CD45+ CD8- cell subset, relative percentage, MEAN: 63.43
  CD45- CD4+ cell subset, relative percentage, MEAN: 15.35
  CD45- CD4- cell subset, relative percentage, MEAN: 9.30
  CD45- CD8+ cell subset, relative percentage, MEAN: 0.83
  CD45- CD8- cell subset, relative percentage, MEAN: 29.30
  Ly5(B) cell subset, relative percentage, MEAN: 56.75
  NK+ CD3+ cell subset, relative percentage, MEAN: 1.83
  NK+ CD3- cell subset, relative percentage, MEAN: 3.88
  NK- CD3+ cell subset, relative percentage, MEAN: 38.38
  NK- CD3- cell subset, relative percentage, MEAN: 55.95
